According to ChEMBL document CHEMBL1201862, “PubChem BioAssay data set” (2004):
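96-well plates; 48 h exposure; 5 concentrations. Endpoints by linear interpolation between flanking doses. Not reached: highest tested concentration assigned. Abbreviation: GI50, concentration required for 50% inhibition of growth.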 Activity calls are given as the source filed them. No stated cut-off is given here; in the data, active = GI50 up to about 1.1 µM and inactive = higher.

Legend:
Test in all cases: growth of human tumour cells (NCI), 48 h
KM12 = system: KM12
Malme-3M = system: Malme-3M
SNB-78 = system: SNB-78
UACC-257 = system: UACC-257
SF-295 = system: SF-295
SN12C = system: SN12C
A549 = system: A549
KM-20L2 = system: KM-20L2
CCRF-CEM = system: CCRF-CEM
OVCAR-5 = system: OVCAR-5
NCI-H226 = system: NCI-H226
HCT-116 = system: HCT-116
SF-539 = system: SF-539
DMS-114 = system: DMS-114
K562 = system: K562
HCT-15 = system: HCT-15
HL-60 = system: HL-60
EKVX = system: EKVX
MOLT-4 = system: MOLT-4
SK-MEL-5 = system: SK-MEL-5
SNB-75 = system: SNB-75
HCC 2998 = system: HCC 2998
OVCAR-4 = system: OVCAR-4
HOP-18 = system: HOP-18
HOP-92 = system: HOP-92
DLD-1 = system: DLD-1
SW-620 = system: SW-620
RXF 393 = system: RXF 393
LOX IMVI = system: LOX IMVI
COLO 205 = system: COLO 205
SNB-19 = system: SNB-19
SF-268 = system: SF-268
M14 = system: M14
RPMI-8226 = system: RPMI-8226
LXFL 529 = system: LXFL 529
HT-29 = system: HT-29
SK-MEL-2 = system: SK-MEL-2
NCI-H23 = system: NCI-H23
CAKI-1 = system: CAKI-1
XF498 = system: XF498
SK-MEL-28 = system: SK-MEL-28
A498 = system: A498
SR = system: SR
NCI-H460 = system: NCI-H460
U-251 = system: U-251
TK-10 = system: TK-10
OVCAR-8 = system: OVCAR-8
IGROV-1 = system: IGROV-1
ACHN = system: ACHN
DMS-273 = system: DMS-273
HOP-62 = system: HOP-62
SK-OV-3 = system: SK-OV-3
UO-31 = system: UO-31
786-0 = system: 786-0
M19-MEL = system: M19-MEL
OVCAR-3 = system: OVCAR-3
NCI-H522 = system: NCI-H522
UACC-62 = system: UACC-62

Measured: GI50

CCCCCCCSCC1OC(n2cnc3c(N)ncnc32)C(O)C1O (stereo not given)
inactive: KM12 8.22 µM | Malme-3M 49.3 µM | SNB-78 > 100 µM | UACC-257 18.3 µM | SF-295 18.7 µM | SN12C 21.8 µM | A549 31.8 µM | KM-20L2 > 100 µM | CCRF-CEM 39.4 µM | OVCAR-5 > 100 µM | NCI-H226 > 100 µM | HCT-116 3.59 µM | SF-539 32.7 µM | DMS-114 18 µM | K562 22.8 µM | HL-60 3.01 µM | EKVX 20.5 µM | MOLT-4 19.1 µM | SK-MEL-5 16.2 µM | SNB-75 24 µM | HCC 2998 20.9 µM | OVCAR-4 21.8 µM | HOP-18 17.9 µM | HOP-92 6.43 µM | DLD-1 7.64 µM | SW-620 13.3 µM | RXF 393 > 100 µM | LOX IMVI 49.9 µM | COLO 205 14 µM | SNB-19 30.5 µM | SF-268 34.2 µM | M14 22.5 µM | RPMI-8226 12.6 µM | LXFL 529 12.3 µM | HT-29 1.42 µM | SK-MEL-2 20.3 µM | NCI-H23 > 100 µM | CAKI-1 5.08 µM | XF498 63.4 µM | SK-MEL-28 > 100 µM | A498 14.2 µM | SR 10 µM | NCI-H460 16.5 µM | U-251 > 100 µM | TK-10 > 100 µM | OVCAR-8 14.4 µM | IGROV-1 14.6 µM | ACHN 25.9 µM | DMS-273 21.3 µM
4.5 µM: HCT-15

O=c1c2ccc(Br)cc2nc(-c2ccccc2)n1NC1OC(CO)C(O)C(O)C1O (stereo not given)
inactive: KM12 > 100 µM | Malme-3M > 100 µM | SNB-78 > 100 µM | UACC-257 > 100 µM | HOP-62 59.3 µM | SF-295 > 100 µM | SN12C > 100 µM | A549 > 100 µM | KM-20L2 > 100 µM | CCRF-CEM 72.9 µM | OVCAR-5 > 100 µM | NCI-H226 > 100 µM | HCT-116 > 100 µM | SF-539 > 100 µM | DMS-114 > 100 µM | K562 > 100 µM | HL-60 > 100 µM | EKVX > 100 µM | SK-OV-3 > 100 µM | MOLT-4 57.3 µM | SK-MEL-5 > 100 µM | SNB-75 > 100 µM | HCC 2998 > 100 µM | OVCAR-4 > 100 µM | HOP-18 > 100 µM | HOP-92 > 100 µM | SW-620 > 100 µM | UO-31 > 100 µM | COLO 205 > 100 µM | 786-0 > 100 µM | SNB-19 > 100 µM | SF-268 > 100 µM | M14 > 100 µM | M19-MEL > 100 µM | OVCAR-3 > 100 µM | RPMI-8226 > 100 µM | LXFL 529 > 100 µM | HT-29 > 100 µM | NCI-H522 > 100 µM | SK-MEL-2 > 100 µM | NCI-H23 > 100 µM | CAKI-1 > 100 µM | XF498 > 100 µM | SK-MEL-28 > 100 µM | A498 > 100 µM | NCI-H460 > 100 µM | U-251 > 100 µM | TK-10 > 100 µM | UACC-62 > 100 µM | OVCAR-8 > 100 µM | IGROV-1 > 100 µM | ACHN > 100 µM | DMS-273 > 100 µM
> 100 µM: HCT-15

COc1cccc(NC(=O)CC(=O)N2NC(c3ccccc3)C(/N=N/c3cccc(C(=O)O)c3)C2=O)c1 (stereo not given)
active: HOP-18 < 0.01 µM
inactive: KM12 39.4 µM | Malme-3M > 100 µM | SNB-78 > 100 µM | UACC-257 > 100 µM | HOP-62 > 100 µM | SF-295 > 100 µM | SN12C > 100 µM | A549 > 100 µM | KM-20L2 > 100 µM | OVCAR-5 > 100 µM | NCI-H226 > 100 µM | HCT-116 > 100 µM | SF-539 > 100 µM | DMS-114 > 100 µM | EKVX > 100 µM | SK-OV-3 > 100 µM | MOLT-4 86.3 µM | SK-MEL-5 > 100 µM | SNB-75 > 100 µM | HCC 2998 > 100 µM | OVCAR-4 > 100 µM | HOP-92 > 100 µM | DLD-1 > 100 µM | SW-620 > 100 µM | RXF 393 49.5 µM | UO-31 27.5 µM | LOX IMVI > 100 µM | COLO 205 > 10 µM | 786-0 > 100 µM | SNB-19 28.1 µM | SF-268 > 100 µM | M14 > 100 µM | M19-MEL > 100 µM | OVCAR-3 38.2 µM | RPMI-8226 70 µM | LXFL 529 85.1 µM | HT-29 > 100 µM | NCI-H23 > 100 µM | CAKI-1 89.5 µM | XF498 > 100 µM | SK-MEL-28 > 100 µM | A498 > 100 µM | SR 55.2 µM | NCI-H460 > 100 µM | U-251 > 100 µM | TK-10 > 100 µM | UACC-62 30.5 µM | OVCAR-8 > 100 µM | IGROV-1 > 100 µM | ACHN > 100 µM
